Laboratory results: US20160281133A1, “STABILIZATION AND ISOLATION OF EXTRACELLULAR NUCLEIC ACIDS” (QIAGEN GMBH, priority 2013, published 2016)
Where a SMILES comes first, the peptide text is derived from it. The star is where a group is joined. Cbz = O=C(OCc1ccccc1)*; CH2F = FC*

How the values were obtained:
whole blood samples [1] = experiment: 18S DNA duplex real time PCR assay, increase of DNA in plasma of stored blood, example 5; format: cell-based, human; details: 20 μM caspase inhibitor in whole blood; storage at RT
[2] = in DMSO (highest concentration listed in the cell); cited from earlier work
whole blood samples [3] = experiment: DNA size distribution by chip gel electrophoresis (blood cell stability/DNA release); format: cell-based, human; details: 20 μM in 10 ml K2E blood; day 3 and day 7
Experimental: To separate the blood plasma from the whole blood, the blood samples were centrifuged for 15 min at 5000 rpm, and the obtained plasma samples were again centrifuged for 10 min at 16.000×g at 4° C.
The circulating, extracellular nucleic acids were purified from the obtained plasma samples using the QIAamp® Circulating NA Kit (QIAGEN, according to the handbook). In brief: • 10 ml sample input; • lysis: 1 ml Proteinase K and 8 ml Buffer ACL (QIAGEN) • binding: 18 ml Buffer ACB (QIAGEN) • wash-steps: unchanged and according to handbook • elution in 60 μl Buffer AVE (QIAGEN)
1.3.1 Measurement of the blood cell stability/DNA release by the determination of DNA size distribution using a chip gel electrophoresis (2100 Bioanalyzer; Agilent Technologies; Inc., USA) according to manufacturer's instruction (see handbook Agilent DNA 7500 and DNA 12000 Kit Guide), but 1.5 μl instead of 1 μl sample were transferred to the wells.
Each tested caspase inhibitor was added to whole blood samples (20 μM end concentration in 10 ml blood; blood was collected into Vacutainer K2E Tubes; BD). The whole blood sample was processed as described in section 1 (plasma preparation and nucleic acid isolation).
The eluted circulating cell-free DNA was separated by size using chip gel electrophoresis (for details on the method see above). […]

COC(=O)C[C@H](NC(=O)[C@H](C)NC(=O)[C@@H](NC(=O)OCc1ccccc1)C(C)C)C(=O)CF [Z-Val-Ala-Asp(OMe)-FMK] (Cbz-Val-Ala-Asp(OMe)-CH2F)
increase of DNA from day 0 to day 3 or 7 (whole blood samples [1]): more prominent on day 7 | solubility [2]: 20 mM, add 107 μl DMSO 10 mM, add 214 μl DMSO 5 mM, add 428 μl DMSO | ladder-like pattern of bands (release and fragmentation of genomic DNA) compared to controls (whole blood samples [3]): reduced ladder-like pattern
